Experiments:
Assay type in all cases: in vivo
[1] = test system: Italian ryegrass (Lolium mutiflorum); experiment: Test C preemergence, visual plant response rating
Outline: (§1)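 Visual injury on a 0 (no effect) to 100 (complete control) scale versus untreated controls, scored approximately 10 d after treatment under greenhouse conditions. Treatments used surfactant-containing non-phytotoxic solvent formulations, sprayed onto loam–sand soil preemergence or onto one- to two-leaf plants 2–10 cm tall postemergence.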

[2] = test system: barnyardgrass (Echinochloa crus-galli); experiment: Test C preemergence, visual plant response rating
Outline: as §1

[3] = test system: foxtail, giant (giant foxtail, Setaria faberi); experiment: Test C preemergence, visual plant response rating
Outline: as §1

[4] = test system: kochia (Bassia scoparia); experiment: Test C preemergence, visual plant response rating
Outline: as §1

[5] = test system: pigweed (Amaranthus retroflexus); experiment: Test C preemergence, visual plant response rating
Outline: as §1

[6] = test system: ragweed (common ragweed, Ambrosia artemisiifolia); experiment: Test C preemergence, visual plant response rating
Outline: as §1

[7] = test system: Italian ryegrass (Lolium mutiflorum); experiment: Test C postemergence, visual plant response rating
Outline: as §1

[8] = test system: barnyardgrass (Echinochloa crus-galli); experiment: Test C postemergence, visual plant response rating
Outline: as §1

[9] = test system: blackgrass (Alopecurus myosuroides); experiment: Test C postemergence, visual plant response rating
Outline: as §1

[10] = test system: corn (Zea mays); experiment: Test C postemergence, visual plant response rating
Outline: as §1

[11] = test system: foxtail, giant (giant foxtail, Setaria faberi); experiment: Test C postemergence, visual plant response rating
Outline: as §1

[12] = test system: galium (catchweed bedstraw, Galium aparine); experiment: Test C postemergence, visual plant response rating
Outline: as §1

[13] = test system: kochia (Bassia scoparia); experiment: Test C postemergence, visual plant response rating
Outline: as §1

[14] = test system: pigweed (Amaranthus retroflexus); experiment: Test C postemergence, visual plant response rating
Outline: as §1

[15] = test system: ragweed (common ragweed, Ambrosia artemisiifolia); experiment: Test C postemergence, visual plant response rating
Outline: as §1

[16] = test system: wheat (Triticum aestivum); experiment: Test C postemergence, visual plant response rating
Outline: as §1

[17] = test system: barnyardgrass (Echinochloa crus-galli); experiment: Test D flooded paddy test, visual plant response rating; details: 250 g ai/ha, scale 0 to 100 (0 no effect, 100 complete control), 13 to 15 d
Outline: (§2)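 Visual injury scores, 0 (no effect) to 100 (complete control), were assigned after 13 to 15 d in the greenhouse by comparison with controls. Test compounds had been added to paddy water covering soil by 3 cm at the 2-leaf stage.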

[18] = test system: duck salad (Heteranthera limosa); experiment: as above; details: 250 g ai/ha, scale 0 to 100 (0 no effect, 100 complete control), 13 to 15 d
Outline: as §2

[19] = test system: rice (Oryza sativa); experiment: as above; details: 250 g ai/ha, scale 0 to 100 (0 no effect, 100 complete control), 13 to 15 d
Outline: as §2

[20] = test system: sedge umbrella (small-flower umbrella sedge, Cyperus difformis); experiment: as above; details: 250 g ai/ha, scale 0 to 100 (0 no effect, 100 complete control), 13 to 15 d
Outline: as §2

[21] = Test C, 31 g ai/ha, 0 is no effect, 100 is complete control
[22] = Test C, 125 g ai/ha, 0 is no effect, 100 is complete control
[23] = Test C, postemergence, 125 g ai/ha

SMILES | Ryegrass, Italian plant response rating (0 to 100 scale) [1, 21] | Barnyardgrass plant response rating (0 to 100 scale) [2, 21] | Foxtail, Giant plant response rating (0 to 100 scale) [3, 21] | Kochia plant response rating (0 to 100 scale) [4, 21] | Pigweed plant response rating (0 to 100 scale) [5, 21] | Ragweed plant response rating (0 to 100 scale) [6, 21] | Ryegrass, Italian plant response rating (0 to 100 scale) ([7]; Postemergence, 31 g ai/ha) | Ryegrass, Italian plant response rating (0 to 100 scale) [7, 23] | Barnyardgrass plant response rating (0 to 100 scale) ([8]; Postemergence, 31 g ai/ha) | Barnyardgrass plant response rating (0 to 100 scale) [8, 23] | Blackgrass plant response rating (0 to 100 scale) ([9]; Postemergence, 31 g ai/ha) | Blackgrass plant response rating (0 to 100 scale) [9, 23] | Corn plant response rating (0 to 100 scale) ([10]; Postemergence, 31 g ai/ha) | Corn plant response rating (0 to 100 scale) [10, 23] | Foxtail, Giant plant response rating (0 to 100 scale) ([11]; Postemergence, 31 g ai/ha) | Foxtail, Giant plant response rating (0 to 100 scale) [11, 23] | Galium plant response rating (0 to 100 scale) ([12]; Postemergence, 31 g ai/ha) | Galium plant response rating (0 to 100 scale) [12, 23] | Kochia plant response rating (0 to 100 scale) ([13]; Postemergence, 31 g ai/ha) | Kochia plant response rating (0 to 100 scale) [13, 23] | other results
CO/N=C(/c1c(O)c(C)nn(C)c1=O)c1cccc2cc(SC)ccc12 [Compound 297] | 0 | 0 | 0 | 0 | 0 | 0 | 0 | 0 | 0 | 0 | 0 | 0 | 0 | 0 | 0 | 0 | 0 | 0 | 0 | 0 | Ryegrass, Italian plant response rating (0 to 100 scale) [1, 22]: 0; Barnyardgrass plant response rating (0 to 100 scale) [2, 22]: 0; Foxtail, Giant plant response rating (0 to 100 scale) [3, 22]: 0; Kochia plant response rating (0 to 100 scale) [4, 22]: 0; Pigweed plant response rating (0 to 100 scale) [5, 22]: 0; Ragweed plant response rating (0 to 100 scale) [6, 22]: 0; Pigweed plant response rating (0 to 100 scale) ([14]; Postemergence, 31 g ai/ha): 0; Pigweed plant response rating (0 to 100 scale) [14, 23]: 0; Ragweed plant response rating (0 to 100 scale) ([15]; Postemergence, 31 g ai/ha): 0; Ragweed plant response rating (0 to 100 scale) [15, 23]: 0; Wheat plant response rating (0 to 100 scale) ([16]; Postemergence, 31 g ai/ha): 0; Wheat plant response rating (0 to 100 scale) [16, 23]: 0; Plant response rating, Barnyardgrass (Flood) [17]: 0; Plant response rating, Ducksalad (Flood) [18]: 0; Plant response rating, Rice (Flood) [19]: 0; Plant response rating, Sedge, Umbrella (Flood) [20]: 0
CC(C)O/N=C(\c1c(O)c(Cl)nn(C)c1=O)c1ccc(F)c2ccccc12 [Compound 210] | 0 | 30 | 90 | 0 | 30 | 0 | 0 | 20 | 40 | 70 | 0 | 30 | 20 | 20 | 70 | 90 | 90 | 100 | 30 | 40 | Ryegrass, Italian plant response rating (0 to 100 scale) [1, 22]: 20; Barnyardgrass plant response rating (0 to 100 scale) [2, 22]: 80; Foxtail, Giant plant response rating (0 to 100 scale) [3, 22]: 100; Kochia plant response rating (0 to 100 scale) [4, 22]: 0; Pigweed plant response rating (0 to 100 scale) [5, 22]: 100; Ragweed plant response rating (0 to 100 scale) [6, 22]: 90; Pigweed plant response rating (0 to 100 scale) ([14]; Postemergence, 31 g ai/ha): 40; Pigweed plant response rating (0 to 100 scale) [14, 23]: 100; Ragweed plant response rating (0 to 100 scale) ([15]; Postemergence, 31 g ai/ha): 90; Ragweed plant response rating (0 to 100 scale) [15, 23]: 90; Wheat plant response rating (0 to 100 scale) ([16]; Postemergence, 31 g ai/ha): 0; Wheat plant response rating (0 to 100 scale) [16, 23]: 0; Plant response rating, Barnyardgrass (Flood) [17]: 0; Plant response rating, Ducksalad (Flood) [18]: 45; Plant response rating, Rice (Flood) [19]: 0; Plant response rating, Sedge, Umbrella (Flood) [20]: 90
CON=C(c1ccc(F)c(Br)c1)c1c(O)c(C)nn(C)c1=O [Compound 176] | 10 | 0 | 0 | 0 | 10 | 10 | 60 | 90 | 30 | 40 | 0 | 30 | 0 | 0 | 10 | 20 | 60 | 90 | 20 | 70 | Ryegrass, Italian plant response rating (0 to 100 scale) ([1]; 125 g ai/ha): 20; Barnyardgrass plant response rating (0 to 100 scale) ([2]; 125 g ai/ha): 0; Foxtail, Giant plant response rating (0 to 100 scale) ([3]; 125 g ai/ha): 10; Kochia plant response rating (0 to 100 scale) ([4]; 125 g ai/ha): 0; Pigweed plant response rating (0 to 100 scale) ([5]; 125 g ai/ha): 60; Ragweed plant response rating (0 to 100 scale) ([6]; 125 g ai/ha): 20; Pigweed plant response rating (0 to 100 scale) ([14]; Postemergence, 31 g ai/ha): 70; Pigweed plant response rating (0 to 100 scale) [14, 23]: 80; Ragweed plant response rating (0 to 100 scale) ([15]; Postemergence, 31 g ai/ha): 30; Ragweed plant response rating (0 to 100 scale) [15, 23]: 70; Wheat plant response rating (0 to 100 scale) ([16]; Postemergence, 31 g ai/ha): 0; Wheat plant response rating (0 to 100 scale) [16, 23]: 0; Plant response rating, Barnyardgrass (Flood) [17]: 0; Plant response rating, Ducksalad (Flood) [18]: 0; Plant response rating, Rice (Flood) [19]: 0; Plant response rating, Sedge, Umbrella (Flood) [20]: 0
